Measured values as given in publication PMC12114195, “Synthesis, Experimental and Computational Evaluation of SERAAK1 as a 5-HT2A Receptor Ligand” (Molecules, 2025).

What was measured:
[1] = test system: mice; experiment: Amphetamine-induced hyperactivity; assay type: in vivo
Protocol: In this test, we measured the distance traveled by the mice during the 20 min observation period. […] Pretreatment concerns the administration of amphetamine, and treatment concerns the tested compound.
(§1) The investigated compound (SERAAK1) in all tests was administered intraperitoneally (i.p.), spread in a drop of Tween 80, diluted by an aqueous solution of 0.5% methylcellulose (tylose) and injected 60 min before the tests in a volume of 10 mL/kg. Initial doses of the compound were selected based on available literature and our earlier studies. Control groups received tylose injections of the same volume and via the same route of administration.
(§2) All experiments were conducted on a 6-week-old naïve male Swiss mice weighing 24–30 g in the Experimental Medicine Center, Medical University of Lublin, Poland. The animals were housed (four/five per cage) under standard laboratory conditions (room temperature of 22 ± 1 °C and a relative humidity of 50–60% during a 12/12 h light-dark cycle, lights on at 8:00). […]
(§3) The automatic device—actimeter Opto-Varimex-4 Auto-Track (Columbus Instruments, Columbus, OH, USA)—was used to measure the locomotor activity of experimental animals. The mice were individually placed in cages for 25 min: the first 5 min for acclimatization and then the next 20 min for observation while the distance (in centimeters) traveled during this time was measured. […]

[2] = target: CYP2D6 (Homo sapiens, UniProt P10635); experiment: CYP2D6 P450 Glo luminescent assay; settings: for inhibition at 10 µM: human
Protocol: (§4) Luminescence-based CYP3A4 P450 Glo and CYP2D6 P450 Glo kits (Promega, Madison, WI, USA) were used to assess the impact of SERAAK1 on the activity of two distinct cytochrome P450 isoforms. These assays were performed according to the protocol of the manufacturer and in alignment with the previously described methods. Each assay was performed twice in triplicate. Luminescence signals were measured using a Spark microplate reader (Tecan, Männedorf, Zürich, Switzerland).

[3] = PAMPA passive permeability; assay type: in vitro ADME; settings: for Papp at 5 h, 100 μM: PBS pH 7.4, 5 h, read-out: Pe ± SD
Protocol: The PAMPA assay was utilized to evaluate the ability of SERAAK1 to passively diffuse through a lipid-infused artificial membrane. The results, gathered in Table 3, were expressed as permeability coefficient Pe, calculated according to the formulas described elsewhere.
The pre-coated PAMPA Plate System Gentest from Corning (Tewksbury, MA, USA) was used in experiments using the instructions of the manufacturer. SERAAK1 and reference compounds were diluted in the PBS buffer (pH 7.4) to the final concentration of 100 μM and placed on the 96-well donor microplate. The exact quantity of molecules that successfully penetrated from donor to acceptor wells through the phospholipid membrane was estimated after 5 h of incubation using UPLC-MS spectrometry (Waters ACQUITY™ TQD system with the TQ Detector, Waters, Milford, CT, USA). The final permeability coefficient (Pe, cm/s) calculation was performed using the formula provided by the vendor of the PAMPA Plate System.

[4] = test system: mice; experiment: Forced swim test (FST); assay type: in vivo; settings: 30 mg/kg i.p., 60 min before the test, vs control, p < 0.01
Protocol: The forced swim test (FST) is commonly used in rodent laboratory models to assess the efficacy of a potential antidepressant drug in alleviating or preventing depressive-like states. In the FST, we estimated the immobility time of animals, illustrating it […]. In this study, a t-test was used to assess the statistically significant effect of acute administration of SERAAK1 (30 mg/kg) on mice behavior in the FST.
as §1
(§5) All experiments were conducted on a 6-week-old naïve male Swiss mice weighing 24–30 g in the Experimental Medicine Center, Medical University of Lublin, Poland. […]
The study was carried out using the test proposed by R. Porsolt. […] The immobility time, considered as the state in which the mouse performs only those movements necessary to keep its head above the water, is measured between 2 and 6 min.

[5] = test system: SH-SY5Y cells; experiment: MTS cytotoxicity assay, SH-SY5Y; assay type: cell-based, human; settings: 72 h
Protocol: (§6) The cytotoxic properties of SERAAK1 were tested in two human cell lines, selected based on their relevance to the study objectives—the HepG2 and SH-SY5Y. Figure 7 and Figure 8 depict the results obtained in the cytotoxicity assays performed using the MTS.
(§7) The cytotoxic effect of SERAAK1 was evaluated using the colorimetric MTS assay. The study was conducted on HepG2 and SH-SY5Y cell lines, following the same protocol. Cell lines were obtained from the American Type Culture Collection (Manassas, VA, USA) and maintained under standard conditions (5% CO2, 37 °C) in DMEM/F12 medium (#31330-038, ThermoFisher Scientific, Waltham, MA, USA), supplemented with 10% FBS (#A5256801, ThermoFisher Scientific) and Penicillin-Streptomycin (#15140-122, ThermoFisher Scientific) until used in the experiment. Cells at passage numbers between 15 and 25 were seeded in 96-well plates at the concentration of 5000 cells/well in 200 μL of medium and incubated for 24 h at 37 °C with 5% CO2. […] Subsequently, plates were incubated at 37 °C, and absorbance was measured using a Spark microplate reader after 1 h for HepG2 and 3 h for SH-SY5Y. Final cell viability was calculated relative to control wells (100% viability) and wells with 10 μM doxorubicin (0% viability). […]

[6] = target: D2 receptor; design: method as in PMID 38619283; settings: radioligand binding; cited from earlier work
[7] = test system: HepG2 cells; experiment: MTS cytotoxicity assay, HepG2; assay type: cell-based, human; settings: 72 h
Protocol: as §6, §7

[8] = test system: mice; experiment: Rotarod test (motor coordination); assay type: in vivo; settings: 30 mg/kg and 60 mg/kg i.p., 60 min after administration
Protocol: (§8) This conclusion was supported by results from two widely used behavioral tests: the chimney test (Figure 10) and the rotarod test (Figure 11), conducted 60 min after the substance administration. In the chimney test, we measured the time it took the mice to exit the chimney, and in the second test, the time the animals stayed on the rod rotating at a constant speed of 18 rpm.
as §1, §2
(§9) The effects of SERAAK1 were also measured in the rotarod and chimney tests. In the first test, the ability of mice to balance on a rotating rod (18 rpm, constantly) was assessed for 1 min. […]

[9] = test system: mice; experiment: Chimney test (motor coordination); assay type: in vivo; settings: 30 mg/kg and 60 mg/kg i.p., 60 min after administration
Protocol: as §8, §1, §2, §9

[10] = target: 5-HT2A receptor; design: method as in PMID 38619283; settings: functional studies; read-out: Kb, antagonist of the 5-HT2A receptor; cited from earlier work
[11] = target: 5-HT1A receptor; design: method as in PMID 38619283; settings: radioligand binding; cited from earlier work
[12] = test system: mice; experiment: Spontaneous locomotor activity; assay type: in vivo; settings: 30 and 60 mg/kg i.p., 60 min before the test, one-way ANOVA
Protocol: Spontaneous locomotor activity is a meaningful parameter helping to understand the physical and mental status of laboratory animals, providing insights into general activity levels, arousal and potential sedative or stimulant effects of administered substances. We measured the distance traveled by the mice during the 20 min observation period.
as §1, §5, §3

[13] = test system: mice; experiment: Elevated plus maze test (EPM); assay type: in vivo; settings: 30 mg/kg i.p.
Protocol: The effect of SERAAK1 on anxiety-like behavior in mice was assessed using the elevated plus maze test (EPM). In this test we measured three parameters: time spent in the open arms of the maze, the number of entries into the open arms—expressed as a percentage of the time spent/entries in both types of maze arms and the total number of entries into the open and closed arms of the maze, which is an additional measure of the animals’ locomotor activity. The anxiolytic activity of mice after SERAAK1 administration was expressed as the percentage of time spent in the open arms of the maze and the number of entries into these arms. Statistical analysis with a t-test indicated a significant influence of acute administration of SERAAK1 (30 mg/kg) on anxiety responses.
as §1
as §2, with “8:00). The animals had free access to laboratory food—pellet diet (LSM, Agropol Motycz, Marynin, Poland) and tap water—except for the short time when they were removed from the cages for testing.” for “8:00).”
Anxiety behaviors were measured using the EPM test according to the Lister method. […] The time spent in the EPM open arms, the number of entries into the open arms, and the total number of entries into both types of arms were measured.

[14] = target: 5-HT2A receptor; design: method as in PMID 38619283; settings: radioligand binding; cited from earlier work
[15] = target: T1, CYP3A4 (Homo sapiens, UniProt P08684); experiment: CYP3A4 P450 Glo luminescent assay; assay type: in vitro ADME
T1 construct: purchased Promega
Protocol: Briefly, the effect of SERAAK1 on CYP3A was determined using a luminescent luciferase-based assay. A 10 µM concentration of the compound was tested in two experiments, each with three replicates.
as §4

[16] = 30 µM (highest concentration tested)
[17] = 60 min before the test, vs control, p < 0.001

Sequence of CYP2D6 (P10635 whole entry, canonical isoform): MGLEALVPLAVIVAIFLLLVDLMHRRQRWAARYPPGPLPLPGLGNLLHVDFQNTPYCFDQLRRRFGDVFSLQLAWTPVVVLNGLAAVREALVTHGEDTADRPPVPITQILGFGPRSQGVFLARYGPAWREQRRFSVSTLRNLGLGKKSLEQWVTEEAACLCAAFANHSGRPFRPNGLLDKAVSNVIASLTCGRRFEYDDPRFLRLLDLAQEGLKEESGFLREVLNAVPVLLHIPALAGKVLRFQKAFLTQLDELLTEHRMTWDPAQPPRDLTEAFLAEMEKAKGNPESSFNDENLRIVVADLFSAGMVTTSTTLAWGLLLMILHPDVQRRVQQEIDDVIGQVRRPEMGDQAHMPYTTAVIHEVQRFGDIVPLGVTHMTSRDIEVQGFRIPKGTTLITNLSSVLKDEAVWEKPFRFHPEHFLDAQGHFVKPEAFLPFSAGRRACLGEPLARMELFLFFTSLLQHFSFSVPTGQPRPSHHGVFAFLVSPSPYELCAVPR
T1 sequence (P08684 whole entry): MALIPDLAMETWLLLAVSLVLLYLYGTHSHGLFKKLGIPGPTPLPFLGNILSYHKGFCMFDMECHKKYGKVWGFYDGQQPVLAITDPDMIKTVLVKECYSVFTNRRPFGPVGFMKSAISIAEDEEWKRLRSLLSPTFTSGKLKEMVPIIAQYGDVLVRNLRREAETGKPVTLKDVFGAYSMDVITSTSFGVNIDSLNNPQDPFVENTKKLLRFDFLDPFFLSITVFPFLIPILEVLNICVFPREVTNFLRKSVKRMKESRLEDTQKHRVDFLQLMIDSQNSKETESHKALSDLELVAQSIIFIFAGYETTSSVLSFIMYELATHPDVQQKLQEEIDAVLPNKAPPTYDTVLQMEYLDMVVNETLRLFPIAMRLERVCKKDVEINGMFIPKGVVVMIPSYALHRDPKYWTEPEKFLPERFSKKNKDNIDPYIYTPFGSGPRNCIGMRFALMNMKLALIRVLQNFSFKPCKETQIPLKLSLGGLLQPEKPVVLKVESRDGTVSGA

Question: With `CC(N)Cc1ccccc1` (stereo not shown) [amphetamine, reference compound] as the compound, how does the “Locomotor activity (distance traveled) vs saline-treated group” value ([1]; amphetamine alone, p < 0.001) read?
Answer: increased the locomotor activity

Question: For `C=C[C@H]1C[N@@]2CC[C@H]1C[C@@H]2[C@@H](O)c1ccnc2ccc(OC)cc12` [Quinidine, reference compound], which inhibition at 10 µM ([2]; CYP2D6 P450 Glo kit (Promega)) is on record?
Answer: 100 ± 1%

Question: For `CCN1CCCC1CNC(=O)c1cc(S(N)(=O)=O)ccc1OC` (stereo not shown) [Sulpiride, reference compound], which Papp at 5 h, 100 μM [3] is on record?
Answer: 0.011 ± 0.002 ×10⁻⁶ cm/s

Question: With `OC(COC(c1ccccc1)c1ccccc1)CN1CCN(C(c2ccccc2)c2ccccc2)CC1` (stereo not shown) [SERAAK1, 1-(benzhydryloxy)-3-(4-benzhydrylpiperazin-1-yl)propan-2-ol] as the compound, how does the “Reduction in immobility time (FST)” value [4] read?
Answer: 29.2%

Question: What about the “Toxic influence on SH-SY5Y cells at lower concentrations” value ([5]; 0.3 µM, 3 µM) of the same compound?
Answer: no toxic influence

Question: And the “% inhibition of cell proliferation, SH-SY5Y” value [5, 16]?
Answer: 50 ± 5%

Question: What about the “CYP2D6 inhibition concentration range (IC50)” value [2] of the same compound?
Answer: submicromolar

Question: And the inhibition at 10 µM [2]?
Answer: 95 ± 1%

Question: And the “Passive permeation through the lipid bilayer” value [3]?
Answer: did not permeate passively

Question: What about the Papp at 5 h, 100 μM [3] of the same compound?
Answer: < 0.01 ×10⁻⁶ cm/s

Question: What about the Ki [6] of the same compound?
Answer: 1.29 ± 0.323 µM

Question: And the “Toxic influence on HepG2 cells at lower concentrations” value ([7]; 0.3 µM, 3 µM)?
Answer: no toxic influence

Question: What about the “% inhibition of cell proliferation (cytotoxic effect), HepG2” value [7, 16] of the same compound?
Answer: 84 ± 3%

Question: What about the “Motor coordination, rotarod test (time on the rod, 18 rpm)” value [8] of the same compound?
Answer: did not reveal any statistically significant effects

Question: What about the “Motor coordination, chimney test (time to exit the chimney)” value [9] of the same compound?
Answer: did not reveal any statistically significant effects

Question: And the “Decrease of amphetamine-induced hyperactivity (distance traveled in 20 min)” value ([1]; 30 mg/kg with amphetamine (5 mg/kg), vs amphetamine-treated group, p < 0.05)?
Answer: 22.15%

Question: And the Kb [10]?
Answer: 0.462 µM

Question: And the Ki [11]?
Answer: 1.43 ± 0.108 µM

Question: What about the “Spontaneous locomotor activity (distance traveled in 20 min)” value [12] of the same compound?
Answer: did not show any significant changes

Question: What about the “Total arm entries, overall mobility (EPM)” value [13] of the same compound?
Answer: did not change the overall mobility

Question: What about the “Increase in percentage of open arm entries (EPM)” value [13, 17] of the same compound?
Answer: 19.34%

Question: And the “Increase in percentage of time spent on the open arms (EPM)” value [13, 17]?
Answer: 12.9%

Question: And the Ki [14]?
Answer: 0.826 ± 0.051 µM

Question: And the “CYP3A4 induction, dose-response” value ([15]; concentrations > 100 nM, up to 10 µM)?
Answer: induce CYP3A4 in a dose-dependent manner

Question: And the inhibition at 10 µM ([15]; human, CYP3A4 P450 Glo kit (Promega), 10 µM, a negative value indicates a stimulating effect, read-out: CYP3A4 Activity Inhibition, Evaluated in the Concentration of 10 µM [% of Inhibition ± SEM])?
Answer: -352 ± 9%
